In the supplement of paper PMC10307832:

Key:
Test in all cases: relative viability (nuclei count vs DMSO), 5 days (fraction); higher = more cells survive
EMC-BAC-2 = test system: EMC-BAC-2
Procedure, shortened: (§1)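 Relative viability divides the nuclei count in treated wells by that in vehicle wells. Lung cancer cell lines were seeded in 1536-well plates, dosed by pin tool the next day, and fixed and stained after 5 days in one step with final 0.05% Triton X-100, 1% formaldehyde and 1 ug/ml Hoechst. Dosing was a single drug or a fixed anchor-drug dose plus five library-drug doses (not always all listed) in √10 steps, and values are medians of duplicate plates imaged at 4×.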

EKVX = test system: EKVX
Procedure, shortened: as §1

NCI-H2126 = test system: NCI-H2126
Procedure, shortened: as §1

NCI-H1755 = test system: NCI-H1755
Procedure, shortened: as §1

LCLC-103H = test system: LCLC-103H
Procedure, shortened: as §1

UMC-11 = test system: UMC-11
Procedure, shortened: as §1

NCI-H1793 = test system: NCI-H1793
Procedure, shortened: as §1

LC-2-ad = test system: LC-2-ad
Procedure, shortened: as §1

NCI-H1651 = test system: NCI-H1651
Procedure, shortened: as §1

NCI-H661 = test system: NCI-H661
Procedure, shortened: as §1

NCI-H1648 = test system: NCI-H1648
Procedure, shortened: as §1

NCI-H1395 = test system: NCI-H1395
Procedure, shortened: as §1

RERF-LC-KJ = test system: RERF-LC-KJ
Procedure, shortened: as §1

PC-14 = test system: PC-14
Procedure, shortened: as §1

COR-L 105 = test system: COR-L 105
Procedure, shortened: as §1

NCI-H2023 = test system: NCI-H2023
Procedure, shortened: as §1

NCI-H2009 = test system: NCI-H2009
Procedure, shortened: as §1

CAL-12T = test system: CAL-12T
Procedure, shortened: as §1

H3255 = test system: H3255
Procedure, shortened: as §1

SW 900 = test system: SW 900
Procedure, shortened: as §1

NCI-H596 = test system: NCI-H596
Procedure, shortened: as §1

NCI-H2087 = test system: NCI-H2087
Procedure, shortened: as §1

C=C1C(=O)O[C@@H](CCCCCCCC)[C@@H]1C(=O)O [C-75] + Nc1nc2[nH]cc(CCc3ccc(C(=O)N[C@@H](CCC(=O)O)C(=O)O)cc3)c2c(=O)[nH]1 [Pemetrexed] (partner 0.2 µM)
relative viability (EMC-BAC-2; first compound 0.08 µM): 0.438
relative viability (EMC-BAC-2; first compound 0.253 µM): 0.432
relative viability (EMC-BAC-2; first compound 0.8 µM): 0.469
relative viability (EMC-BAC-2; first compound 2.53 µM): 0.328
relative viability (EMC-BAC-2; first compound 8 µM): 0.426
relative viability (EKVX; first compound 0.08 µM): 0.45
relative viability (EKVX; first compound 0.253 µM): 0.491
relative viability (EKVX; first compound 0.8 µM): 0.366
relative viability (EKVX; first compound 8 µM): 0.358
relative viability (NCI-H2126; first compound 0.08 µM): 0.727
relative viability (NCI-H2126; first compound 0.253 µM): 0.681
relative viability (NCI-H2126; first compound 0.8 µM): 0.725
relative viability (NCI-H2126; first compound 2.53 µM): 0.622
relative viability (NCI-H2126; first compound 8 µM): 0.673
relative viability (NCI-H1755; first compound 0.08 µM): 0.457
relative viability (NCI-H1755; first compound 0.253 µM): 0.468
relative viability (NCI-H1755; first compound 0.8 µM): 0.46
relative viability (NCI-H1755; first compound 2.53 µM): 0.391
relative viability (NCI-H1755; first compound 8 µM): 0.438
relative viability (LCLC-103H; first compound 0.08 µM): 0.464
relative viability (LCLC-103H; first compound 0.253 µM): 0.428
relative viability (LCLC-103H; first compound 0.8 µM): 0.458
relative viability (LCLC-103H; first compound 2.53 µM): 0.326
relative viability (LCLC-103H; first compound 8 µM): 0.433
relative viability (UMC-11; first compound 0.08 µM): 0.77
relative viability (UMC-11; first compound 0.253 µM): 0.883
relative viability (UMC-11; first compound 0.8 µM): 0.725
relative viability (UMC-11; first compound 2.53 µM): 0.625
relative viability (UMC-11; first compound 8 µM): 0.576
relative viability (NCI-H1793; first compound 0.08 µM): 0.702
relative viability (NCI-H1793; first compound 0.253 µM): 0.954
relative viability (NCI-H1793; first compound 2.53 µM): 0.59
relative viability (NCI-H1793; first compound 8 µM): 0.958
relative viability (LC-2-ad; first compound 0.08 µM): 0.283
relative viability (LC-2-ad; first compound 0.253 µM): 0.265
relative viability (LC-2-ad; first compound 0.8 µM): 0.285
relative viability (LC-2-ad; first compound 2.53 µM): 0.279
relative viability (LC-2-ad; first compound 8 µM): 0.271
relative viability (NCI-H1651; first compound 0.08 µM): 0.568
relative viability (NCI-H1651; first compound 0.253 µM): 0.671
relative viability (NCI-H1651; first compound 0.8 µM): 0.541
relative viability (NCI-H1651; first compound 2.53 µM): 0.53
relative viability (NCI-H1651; first compound 8 µM): 0.606
relative viability (NCI-H661; first compound 0.08 µM): 0.919
relative viability (NCI-H661; first compound 0.253 µM): 0.925
relative viability (NCI-H661; first compound 0.8 µM): 0.856
relative viability (NCI-H661; first compound 2.53 µM): 0.783
relative viability (NCI-H661; first compound 8 µM): 0.881
relative viability (NCI-H1648; first compound 0.08 µM): 0.731
relative viability (NCI-H1648; first compound 0.253 µM): 1.01
relative viability (NCI-H1648; first compound 0.8 µM): 0.681
relative viability (NCI-H1648; first compound 8 µM): 0.606
relative viability (NCI-H1395; first compound 0.08 µM): 0.881
relative viability (NCI-H1395; first compound 0.253 µM): 0.807
relative viability (NCI-H1395; first compound 2.53 µM): 0.758
relative viability (NCI-H1395; first compound 8 µM): 0.914
relative viability (RERF-LC-KJ; first compound 0.08 µM): 0.456
relative viability (RERF-LC-KJ; first compound 0.253 µM): 0.487
relative viability (RERF-LC-KJ; first compound 0.8 µM): 0.469
relative viability (RERF-LC-KJ; first compound 2.53 µM): 0.46
relative viability (RERF-LC-KJ; first compound 8 µM): 0.461
relative viability (PC-14; first compound 0.08 µM): 0.141
relative viability (PC-14; first compound 0.253 µM): 0.146
relative viability (PC-14; first compound 0.8 µM): 0.137
relative viability (PC-14; first compound 2.53 µM): 0.141
relative viability (PC-14; first compound 8 µM): 0.131
relative viability (COR-L 105; first compound 0.08 µM): 1.14
relative viability (COR-L 105; first compound 0.253 µM): 1.07
relative viability (COR-L 105; first compound 0.8 µM): 1.07
relative viability (COR-L 105; first compound 2.53 µM): 1.24
relative viability (COR-L 105; first compound 8 µM): 0.96
relative viability (NCI-H2023; first compound 0.08 µM): 0.246
relative viability (NCI-H2023; first compound 0.253 µM): 0.265
relative viability (NCI-H2023; first compound 0.8 µM): 0.242
relative viability (NCI-H2023; first compound 2.53 µM): 0.171
relative viability (NCI-H2023; first compound 8 µM): 0.21
relative viability (NCI-H2009; first compound 0.08 µM): 1.12
relative viability (NCI-H2009; first compound 0.253 µM): 0.924
relative viability (NCI-H2009; first compound 0.8 µM): 0.947
relative viability (NCI-H2009; first compound 2.53 µM): 0.886
relative viability (NCI-H2009; first compound 8 µM): 0.975
relative viability (CAL-12T; first compound 0.08 µM): 1.37
relative viability (CAL-12T; first compound 0.253 µM): 1.45
relative viability (CAL-12T; first compound 0.8 µM): 1.11
relative viability (CAL-12T; first compound 2.53 µM): 1.05
relative viability (CAL-12T; first compound 8 µM): 1.27
relative viability (H3255; first compound 0.08 µM): 0.588
relative viability (H3255; first compound 0.253 µM): 0.561
relative viability (H3255; first compound 0.8 µM): 0.577
relative viability (H3255; first compound 2.53 µM): 0.525
relative viability (H3255; first compound 8 µM): 0.627
relative viability (SW 900; first compound 0.08 µM): 0.446
relative viability (SW 900; first compound 0.253 µM): 0.462
relative viability (SW 900; first compound 0.8 µM): 0.479
relative viability (SW 900; first compound 2.53 µM): 0.301
relative viability (SW 900; first compound 8 µM): 0.454
relative viability (NCI-H596; first compound 0.08 µM): 0.503
relative viability (NCI-H596; first compound 0.253 µM): 0.432
relative viability (NCI-H596; first compound 0.8 µM): 0.461
relative viability (NCI-H596; first compound 2.53 µM): 0.47
relative viability (NCI-H596; first compound 8 µM): 0.481
relative viability (NCI-H2087; first compound 0.08 µM): 0.695
relative viability (NCI-H2087; first compound 0.253 µM): 0.686
relative viability (NCI-H2087; first compound 0.8 µM): 0.616
relative viability (NCI-H2087; first compound 2.53 µM): 0.647
relative viability (NCI-H2087; first compound 8 µM): 0.574
